According to publication PMC9501810, “Bitter Peptides YFYPEL, [sequence], and [sequence], Released during Gastric Digestion of Casein, Stimulate Mechanisms of Gastric Acid Secretion via Bitter Taste Receptors TAS2R16 and TAS2R38” (Journal of Agricultural and Food Chemistry, 2022):

Experiments:
Assay type in all cases: cell-based, human
TAS2R13 = test: RT-qPCR gene expression of TAS2R13 in HGT-1 cells; conditions: VAPFPEVF 17.5 µM, YFYPEL 0.03 µM, YQEPVLGPVRGPFPIIV 0.4 µM, normalized to PPIA and GAPDH and untreated cells, mean, n = 3–5
Protocol: (§1) For mRNA expression analysis, 800,000 cells were seeded in a T25 cell culture flask (25 cm^2) 1 day before the experiment. After incubation with 17.5 μM […], 0.03 μM YFYPEL, or 0.4 μM […] for 15, 30, 60, and 120 min, RNA was isolated using the peqGOLD RNA Kit (VWR Peqlab, USA) following the manufacturer’s protocol. Determination of RNA concentration (A260/A280 between 2.03 and 2.09) was performed on a NanoDrop One^c (Thermo Fisher Scientific Inc., USA). RNA integrity number (RIN 9.9–10.0, version 2.6, assay class Eukaryote Total RNA Nano) was analyzed using a 2100 Bioanalyzer (Agilent Technologies, USA). Removal of gDNA and synthesis of cDNA were performed using the iScript gDNA Clear cDNA Synthesis Kit (BioRad, Feldkirchen, Germany) following the manufacturer’s protocol. Real-time-qPCR (RT-qPCR) was performed with 50 ng cDNA amplified with SsoAdvanced Universal SYBR Green Supermix (Bio-Rad Laboratories, Inc., USA). The sequences of the forward and reverse primers of the 25 TAS2Rs were taken from Liszt et al.([13]) (Supporting Information Table-SI 3). Verified primers for the TAS1Rs (TAS1R1: qHsaCID0013443; TAS1R2: qHsaCID0016106; TAS1R3: qHsaCED0002321) and for MAPK1 (qHsaCEP0050000) were obtained from Bio-Rad Laboratories. PPIA[37] and GAPDH[38] were used as reference genes. The effects of the peptides on gene expression were analyzed in comparison to untreated control cells.

TAS2R9 = test: RT-qPCR gene expression of TAS2R9 in HGT-1 cells; conditions: VAPFPEVF 17.5 µM, YFYPEL 0.03 µM, YQEPVLGPVRGPFPIIV 0.4 µM, normalized to PPIA and GAPDH and untreated cells, mean, n = 3–5
Protocol: as §1

TAS2R40 = test: RT-qPCR gene expression of TAS2R40 in HGT-1 cells; conditions: VAPFPEVF 17.5 µM, YFYPEL 0.03 µM, YQEPVLGPVRGPFPIIV 0.4 µM, normalized to PPIA and GAPDH and untreated cells, mean, n = 3–5
Protocol: as §1

TAS2R16 = test: Proton secretion assay in TAS2R16 knock-down vs mock-transfected HGT-1 cells; conditions: TAS2R16kd vs mock-transfected HGT-1 cells, VAPFPEVF 17.5 µM, YFYPEL 0.03 µM, YQEPVLGPVRGPFPIIV 0.4 µM, 10 min, mean ± SEM
Protocol: The measurement of proton secretion from HGT-1 cells represents a well-established model for the identification of bitter compounds. By affecting extraoral bitter taste receptors with bitter compounds, a modulatory effect on proton secretion can be measured. For this purpose, cells were washed with KRHB and incubated with 3 μM of the intracellular pH indicator 1,5 carboxy-seminaphto-rhodafluor acetoxymethyl ester (SNARF-1-AM) under standard conditions. After 30 min, the cells were washed again with KRHB and then incubated with casein (0.01–10 μM equimolar related to the relevant forms αS1- and β-casein), hydrolysate (0.01–10 μM), or the peptides (0.01–200 μM). […] All substances were dissolved and diluted in KRHB. 1 mM histamine was used as a positive control. Measurements were performed using FlexStation 3 (Molecular Devices, USA). The excitation wavelength was 488 nm, and the emission wavelengths were 580 and 640 nm. For calibration (pH range 7.0–8.0), the intracellular and extracellular pH was adjusted with 2 μM nigericin in potassium buffer (20 mM NaCl, 110 mM KCl, 1 mM CaCl2, 1 mM MgSO4, 18 mM D-glucose, and 20 mM HEPES). The intracellular proton index (IPX) was calculated as the log2 value of the 580/640 ratio and compared with cells without treatment. Negative values represent increased secretion of protons and therefore stimulation of mechanisms regulating gastric acid secretion in HGT-1 cells. In contrast, positive values represent an inhibition of secretion compared to the untreated control.
Expression of TAS2R16 and TAS2R38 was reduced by treatment of HGT-1 cells with siRNA. 100,000 cells per well were seeded 1 day before the experiment into a 24-well plate. All reagents and siRNA were purchased from Thermo Fisher Scientific, USA (cytotoxicity was excluded by MTT). Transfection was performed with Lipofectamine RNAiMAX in Opti-Medium according to the manufacturer’s protocol. 1–50 nM of different siRNA sequences (HSS121396 and HSS181763 for TAS2R16 and HSS108754 and HSS108756 for TAS2R38) and three different incubation times (24, 48, and 72 h) were tested. Mock control experiments were performed analogously with 1 or 10 nM Stealth RNAi siRNA negative control. To verify the functionality of the transfection process, verified 10 nM siRNA targeting MAPK1 (VHS40312) was used (positive control). The transfection rate was checked by qPCR as described in section 2.11. For the proton secretion assays, 20,000 cells per well were seeded 1 day before transfection into a black 96-well plate. After 72 h of transfection, proton secretion activities of TAS2R16 knock-down or TAS2R38 knock-down HGT-1 were compared with the mock transfected cells by means of ΔIPX.

TAS2R43 = test: RT-qPCR gene expression of TAS2R43 in HGT-1 cells; conditions: VAPFPEVF 17.5 µM, YFYPEL 0.03 µM, YQEPVLGPVRGPFPIIV 0.4 µM, normalized to PPIA and GAPDH and untreated cells, mean, n = 3–5
Protocol: as §1

TAS2R8 = test: RT-qPCR gene expression of TAS2R8 in HGT-1 cells; conditions: VAPFPEVF 17.5 µM, YFYPEL 0.03 µM, YQEPVLGPVRGPFPIIV 0.4 µM, normalized to PPIA and GAPDH and untreated cells, mean, n = 3–5
Protocol: as §1

TAS2R60 = test: RT-qPCR gene expression of TAS2R60 in HGT-1 cells; conditions: incubation 15/30/60/120 min, VAPFPEVF 17.5 µM, YFYPEL 0.03 µM, YQEPVLGPVRGPFPIIV 0.4 µM, expression not detectable with or without treatment
Protocol: as §1

TAS2R46 = test: RT-qPCR gene expression of TAS2R46 in HGT-1 cells; conditions: VAPFPEVF 17.5 µM, YFYPEL 0.03 µM, YQEPVLGPVRGPFPIIV 0.4 µM, normalized to PPIA and GAPDH and untreated cells, mean, n = 3–5
Protocol: as §1

TAS2R39 = test: RT-qPCR gene expression of TAS2R39 in HGT-1 cells; conditions: VAPFPEVF 17.5 µM, YFYPEL 0.03 µM, YQEPVLGPVRGPFPIIV 0.4 µM, normalized to PPIA and GAPDH and untreated cells, mean, n = 3–5
Protocol: as §1

TAS2R19 = test: RT-qPCR gene expression of TAS2R19 in HGT-1 cells; conditions: VAPFPEVF 17.5 µM, YFYPEL 0.03 µM, YQEPVLGPVRGPFPIIV 0.4 µM, normalized to PPIA and GAPDH and untreated cells, mean, n = 3–5
Protocol: as §1

VAPFPEVF [bitter casein peptide αS1-CN25–32]
change in gene expression of TAS2R13 (TAS2R13; incubation 15 min): 0.44 fold change
change in gene expression of TAS2R13 (TAS2R13; incubation 30 min): 1.28 fold change
change in gene expression of TAS2R13 (TAS2R13; incubation 60 min): 1.01 fold change
change in gene expression of TAS2R13 (TAS2R13; incubation 120 min): 1.92 fold change
change in gene expression of TAS2R9 (TAS2R9; incubation 15 min): 1.73 fold change
change in gene expression of TAS2R9 (TAS2R9; incubation 30 min): 1.08 fold change
change in gene expression of TAS2R9 (TAS2R9; incubation 60 min): 2.31 fold change
change in gene expression of TAS2R9 (TAS2R9; incubation 120 min): 0.99 fold change
change in gene expression of TAS2R40 (TAS2R40; incubation 15 min): 0.81 fold change
change in gene expression of TAS2R40 (TAS2R40; incubation 30 min): 1.54 fold change
change in gene expression of TAS2R40 (TAS2R40; incubation 60 min): 0.88 fold change
change in gene expression of TAS2R40 (TAS2R40; incubation 120 min): 1.42 fold change
decrease of the peptide-induced increase in proton secretion activity in TAS2R16kd cells (TAS2R16; 72 h after 10 nM siRNA): 77.4 ± 10.1%
change of peptide-induced proton secretion, TAS2R16kd (Figure 5B–D) (TAS2R16; negative = reduction): -77.4 ±10.1%
change in gene expression of TAS2R43 (TAS2R43; incubation 15 min): 0.57 fold change
change in gene expression of TAS2R43 (TAS2R43; incubation 30 min): 1.14 fold change
change in gene expression of TAS2R43 (TAS2R43; incubation 60 min): 0.72 fold change
change in gene expression of TAS2R43 (TAS2R43; incubation 120 min): 1.49 fold change
change in gene expression of TAS2R8 (TAS2R8; incubation 15 min): 1.24 fold change
change in gene expression of TAS2R8 (TAS2R8; incubation 30 min): 2.25 fold change
change in gene expression of TAS2R8 (TAS2R8; incubation 60 min): 1.34 fold change
change in gene expression of TAS2R8 (TAS2R8; incubation 120 min): 2.04 fold change
change in gene expression of TAS2R60 (TAS2R60): not detected
change in gene expression of TAS2R46 (TAS2R46; incubation 15 min): 0.62 fold change
change in gene expression of TAS2R46 (TAS2R46; incubation 30 min): 1.47 fold change
change in gene expression of TAS2R46 (TAS2R46; incubation 60 min): 0.85 fold change
change in gene expression of TAS2R46 (TAS2R46; incubation 120 min): 1.95 fold change
change in gene expression of TAS2R39 (TAS2R39; incubation 15 min): 0.39 fold change
change in gene expression of TAS2R39 (TAS2R39; incubation 30 min): 1.37 fold change
change in gene expression of TAS2R39 (TAS2R39; incubation 60 min): 0.55 fold change
change in gene expression of TAS2R39 (TAS2R39; incubation 120 min): 1.16 fold change
change in gene expression of TAS2R19 (TAS2R19; incubation 15 min): 0.66 fold change
change in gene expression of TAS2R19 (TAS2R19; incubation 30 min): 1.22 fold change
change in gene expression of TAS2R19 (TAS2R19; incubation 60 min): 0.69 fold change
change in gene expression of TAS2R19 (TAS2R19; incubation 120 min): 1.25 fold change
